Results reported in patent US20210378993A1 (Nacuity Pharmaceuticals, Inc., priority 2020, published 2021).
Values joined by “and” are separate entries in the source; they are usually repeats but may differ in a detail not shown here. Equal entries are not always repeated.

Assays:
[1] = humans, oral dose of 600 mg; cited from earlier work
rabbit eyes = test: Ophthalmic tolerability, daily Draize scores after topical ocular administration; type: in vivo; conditions: rabbits
Method: To simulate topical ocular exposure to an ophthalmic insert containing AGENT, prototype ophthalmic formulations were prepared containing either 1% NPI-001, 1% diNACA, 1% NAC or vehicle and tested to evaluate ocular tolerability. Three rabbits per group were administered 1% NPI-001, 1% di-NAC, 1% NAC in a prototype vehicle, via bilateral topical administration four times a day for 6 days, and once on Day 7.

[2] = 1% in prototype vehicle, bilateral topical four times a day, Day 1, per animal and eye
[3] = 1% in prototype vehicle, bilateral topical four times a day, Day 2, per animal and eye
[4] = 1% in prototype vehicle, bilateral topical four times a day, Day 3, per animal and eye
[5] = 1% in prototype vehicle, bilateral topical four times a day, Day 4, per animal and eye
[6] = 1% in prototype vehicle, bilateral topical four times a day, Day 5, per animal and eye
[7] = 1% in prototype vehicle, bilateral topical four times a day, Day 6, per animal and eye
[8] = 1% in prototype vehicle, bilateral topical, once on Day 7, Day 7, per animal and eye
[9] = 1% in prototype vehicle, bilateral topical, (baseline), per animal and eye

CC(=O)NC(CS)C(=O)O (centres unmarked) [NAC, N-acetylcysteine, reference compound]
time after administration at which no NAC is detectable [1]: 10 to 12 h
Daily Draize Scores for Chemosis, Day 1 (rabbit eyes; [2]): 0
Daily Draize Scores for Discharge, Day 1 (rabbit eyes; [2]): 0
Daily Draize Scores for Hyperemia, Day 1 (rabbit eyes; [2]): 0
Daily Draize Scores for Chemosis, Day 2 (rabbit eyes; [3]): 0
Daily Draize Scores for Discharge, Day 2 (rabbit eyes; [3]): 0 (4×) and 0.5 (2×)
Daily Draize Scores for Hyperemia, Day 2 (rabbit eyes; [3]): 0 (4×) and 0.5 (2×)
Daily Draize Scores for Chemosis, Day 3 (rabbit eyes; [4]): 0
Daily Draize Scores for Discharge, Day 3 (rabbit eyes; [4]): 0
Daily Draize Scores for Hyperemia, Day 3 (rabbit eyes; [4]): 0 (3×) and 0.5 (3×)
Daily Draize Scores for Chemosis, Day 4 (rabbit eyes; [5]): 0
Daily Draize Scores for Discharge, Day 4 (rabbit eyes; [5]): 0 (4×) and 1 and 0.5
Daily Draize Scores for Hyperemia, Day 4 (rabbit eyes; [5]): 0
Daily Draize Scores for Chemosis, Day 5 (rabbit eyes; [6]): 0
Daily Draize Scores for Discharge, Day 5 (rabbit eyes; [6]): 0.5 and 0 (5×)
Daily Draize Scores for Hyperemia, Day 5 (rabbit eyes; [6]): 0
Daily Draize Scores for Chemosis, Day 6 (rabbit eyes; [7]): 0
Daily Draize Scores for Discharge, Day 6 (rabbit eyes; [7]): 0 (3×) and 1 (3×)
Daily Draize Scores for Hyperemia, Day 6 (rabbit eyes; [7]): 0
Daily Draize Scores for Chemosis, Day 7 (rabbit eyes; [8]): 0
Daily Draize Scores for Discharge, Day 7 (rabbit eyes; [8]): 0.5 (4×) and 1 and 0
Daily Draize Scores for Hyperemia, Day 7 (rabbit eyes; [8]): 1 (3×) and 0.5 (3×)
Daily Draize Scores for Chemosis, Day B (rabbit eyes; [9]): 0
Daily Draize Scores for Discharge, Day B (rabbit eyes; [9]): 0
Daily Draize Scores for Hyperemia, Day B (rabbit eyes; [9]): 0
ocular hyperemia, observation over the study (rabbit eyes; 1%, four times a day for 6 days, once on Day 7): mild hyperemia was observed at low frequencies
